Reference: patent publication US9944602B2, “Piperidinone herbicides” (E. I. DU PONT DE NEMOURS AND COMPANY, priority 2014, dated 2018)

Legend:
Type in all cases: in vivo
[1] = system: barnyardgrass (Echinochloa crus-galli); assay: Test A preemergence barnyardgrass; settings: Echinochloa crus-galli, pre-emergence, 240 h, 0 to 100 scale, 0 no effect, 100 complete control, read-out: Barnyardgrass plant response rating; for pest or weed control at 125 g/ha: 125 g ai/ha; for pest or weed control at 500 g/ha: 500 g ai/ha
Summary of the method: (§1)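 Directed soil spray at planting gives preemergence data; foliar application to one- to two-leaf plants gives postemergence data. Response is visual injury relative to untreated controls about 10 d after treatment, scored 0–100.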

kochia (Kochia scoparia) [2] = assay: Test A preemergence kochia; settings: Bassia scoparia, pre-emergence, 240 h, 0 to 100 scale, 0 no effect, 100 complete control, read-out: Kochia plant response rating; for pest or weed control at 125 g/ha: 125 g ai/ha; for pest or weed control at 500 g/ha: 500 g ai/ha
Summary of the method: as §1

[3] = system: ragweed (common ragweed, Ambrosia elatior); assay: Test A preemergence ragweed; settings: Ambrosia artemisiifolia, pre-emergence, 240 h, 0 to 100 scale, 0 no effect, 100 complete control, read-out: Ragweed plant response rating; for pest or weed control at 125 g/ha: 125 g ai/ha; for pest or weed control at 500 g/ha: 500 g ai/ha
Summary of the method: as §1

[4] = system: ryegrass, Italian (Italian ryegrass, Lolium multiflorum); assay: Test A preemergence ryegrass, Italian; settings: Lolium multiflorum, pre-emergence, 240 h, 0 to 100 scale, 0 no effect, 100 complete control, read-out: Ryegrass, Italian plant response rating; for pest or weed control at 125 g/ha: 125 g ai/ha; for pest or weed control at 500 g/ha: 500 g ai/ha
Summary of the method: as §1

[5] = system: foxtail, giant (giant foxtail, Setaria faberii); assay: Test A preemergence foxtail, giant; settings: Setaria faberi, pre-emergence, 240 h, 0 to 100 scale, 0 no effect, 100 complete control, read-out: Foxtail, Giant plant response rating; for pest or weed control at 125 g/ha: 125 g ai/ha; for pest or weed control at 500 g/ha: 500 g ai/ha
Summary of the method: as §1

[6] = system: pigweed (Amaranthus retroflexus); assay: Test A preemergence pigweed; settings: Amaranthus retroflexus, pre-emergence, 240 h, 0 to 100 scale, 0 no effect, 100 complete control, read-out: Pigweed plant response rating; for pest or weed control at 125 g/ha: 125 g ai/ha; for pest or weed control at 500 g/ha: 500 g ai/ha
Summary of the method: as §1

[7] = system: barnyardgrass (Echinochloa crus-galli); assay: Test A postemergence barnyardgrass; settings: Echinochloa crus-galli, post-emergence, 240 h, 0 to 100 scale, 0 is no effect, 100 is complete control, read-out: Plant response rating, Barnyardgrass; for pest or weed control at 125 g/ha: 125 g ai/ha; for pest or weed control at 500 g/ha: 500 g ai/ha
Summary of the method: as §1

kochia (Kochia scoparia) [8] = assay: Test A postemergence kochia; settings: Bassia scoparia, post-emergence, 240 h, 0 to 100 scale, 0 is no effect, 100 is complete control, read-out: Plant response rating, Kochia; for pest or weed control at 125 g/ha: 125 g ai/ha; for pest or weed control at 500 g/ha: 500 g ai/ha
Summary of the method: as §1

[9] = system: ragweed (common ragweed, Ambrosia elatior); assay: Test A postemergence ragweed; settings: Ambrosia artemisiifolia, post-emergence, 240 h, 0 to 100 scale, 0 is no effect, 100 is complete control, read-out: Plant response rating, Ragweed; for pest or weed control at 125 g/ha: 125 g ai/ha; for pest or weed control at 500 g/ha: 500 g ai/ha
Summary of the method: as §1

[10] = system: ryegrass, Italian (Italian ryegrass, Lolium multiflorum); assay: Test A postemergence ryegrass, Italian; settings: Lolium multiflorum, post-emergence, 240 h, 0 to 100 scale, 0 is no effect, 100 is complete control, read-out: Plant response rating, Ryegrass, Italian; for pest or weed control at 125 g/ha: 125 g ai/ha; for pest or weed control at 500 g/ha: 500 g ai/ha
Summary of the method: as §1

[11] = system: foxtail, giant (giant foxtail, Setaria faberii); assay: Test A postemergence foxtail, giant; settings: Setaria faberi, post-emergence, 240 h, 0 to 100 scale, 0 is no effect, 100 is complete control, read-out: Plant response rating, Foxtail, Giant; for pest or weed control at 125 g/ha: 125 g ai/ha; for pest or weed control at 500 g/ha: 500 g ai/ha
Summary of the method: as §1

[12] = system: pigweed (Amaranthus retroflexus); assay: Test A postemergence pigweed; settings: Amaranthus retroflexus, post-emergence, 240 h, 0 to 100 scale, 0 is no effect, 100 is complete control, read-out: Plant response rating, Pigweed; for pest or weed control at 125 g/ha: 125 g ai/ha; for pest or weed control at 500 g/ha: 500 g ai/ha
Summary of the method: as §1

[13] = system: wheat (Triticum aestivum); assay: Test A postemergence wheat; settings: Triticum aestivum, post-emergence, 240 h, 0 to 100 scale, 0 is no effect, 100 is complete control, read-out: Plant response rating, Wheat; for plant injury at 125 g/ha: 125 g ai/ha; for plant injury at 500 g/ha: 500 g ai/ha
Summary of the method: as §1

corn (Zea mays) = assay: Test A postemergence corn; settings: Zea mays, post-emergence, 240 h, 0 to 100 scale, 0 is no effect, 100 is complete control; for Corn plant response rating (crop injury, 0 = no effect, 100 = complete kill) at 125 g/ha: 125 g ai/ha; for Corn plant response rating (crop injury, 0 = no effect, 100 = complete kill) at 500 g/ha: 500 g ai/ha
Summary of the method: as §1

[14] = system: blackgrass (Alopecurus myosuroides); assay: Test A postemergence blackgrass; settings: Alopecurus myosuroides, post-emergence, 240 h, 0 to 100 scale, 0 is no effect, 100 is complete control, read-out: Plant response rating, Blackgrass; for pest or weed control at 125 g/ha: 125 g ai/ha; for pest or weed control at 500 g/ha: 500 g ai/ha
Summary of the method: as §1

[15] = system: galium (catchweed bedstraw, Galium aparine); assay: Test A postemergence galium; settings: Galium, post-emergence, 240 h, 0 to 100 scale, 0 is no effect, 100 is complete control, read-out: Plant response rating, Galium; for pest or weed control at 125 g/ha: 125 g ai/ha; for pest or weed control at 500 g/ha: 500 g ai/ha
Summary of the method: as §1

rice (Oryza sativa) = assay: Test B flooded paddy test rice; settings: Oryza sativa, Table B, Flood, 250 g ai/ha, scale 0 to 100, read-out: Plant response rating
Summary of the method: (§2)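 Plants grown to the 2-leaf stage; pots flooded to 3 cm above soil at treatment, compound applied directly into paddy water, depth held throughout. Greenhouse 13 to 15 d, then visual evaluation against untreated controls.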

[16] = system: sedge, umbrella (small-flower umbrella sedge, Cyperus difformis); assay: Test B flooded paddy test sedge, umbrella; settings: Cyperus difformis, Table B, Flood, 250 g ai/ha, scale 0 to 100, read-out: Plant response rating
Summary of the method: as §2

[17] = system: ducksalad (Heteranthera limosa); assay: Test B flooded paddy test ducksalad; settings: Heteranthera limosa, Table B, Flood, 250 g ai/ha, scale 0 to 100, read-out: Plant response rating
Summary of the method: as §2

[18] = system: barnyardgrass (Echinochloa crus-galli); assay: Test B flooded paddy test barnyardgrass; settings: Echinochloa crus-galli, Table B, Flood, 250 g ai/ha, scale 0 to 100, read-out: Plant response rating
Summary of the method: as §2

Compound	pest or weed control at 125 g/ha [1]	pest or weed control at 500 g/ha [1]	pest or weed control at 125 g/ha (kochia (Kochia scoparia) [2])	pest or weed control at 500 g/ha (kochia (Kochia scoparia) [2])	pest or weed control at 125 g/ha [3]	pest or weed control at 500 g/ha [3]	pest or weed control at 125 g/ha [4]	pest or weed control at 500 g/ha [4]	pest or weed control at 125 g/ha [5]	pest or weed control at 500 g/ha [5]	pest or weed control at 125 g/ha [6]	pest or weed control at 500 g/ha [6]	pest or weed control at 125 g/ha [7]	pest or weed control at 500 g/ha [7]	pest or weed control at 125 g/ha (kochia (Kochia scoparia) [8])	pest or weed control at 500 g/ha (kochia (Kochia scoparia) [8])	pest or weed control at 125 g/ha [9]	pest or weed control at 500 g/ha [9]	pest or weed control at 125 g/ha [10]	pest or weed control at 500 g/ha [10]	other results
O=C1NCC[C@H](c2cccc(Cl)c2)[C@H]1C(=O)Nc1cccc(F)c1F [Compound 42, (3R,4S)-4-(3-chlorophenyl)-N-(2,3-difluorophenyl)-2-oxo-3-piperidinecarboxamide]	90%	90%	0%	0%	0%	0%	40%	60%	90%	90%	0%	10%	80%	90%	0%	30%	0%	0%	40%	50%	pest or weed control at 125 g/ha [11]: 90%; pest or weed control at 500 g/ha [11]: 90%; pest or weed control at 125 g/ha [12]: 0%; pest or weed control at 500 g/ha [12]: 0%; plant injury at 125 g/ha [13]: 0%; plant injury at 500 g/ha [13]: 60%; Corn plant response rating (crop injury, 0 = no effect, 100 = complete kill) at 125 g/ha (corn (Zea mays)): 10%; Corn plant response rating (crop injury, 0 = no effect, 100 = complete kill) at 500 g/ha (corn (Zea mays)): 60%; pest or weed control at 125 g/ha [14]: 40%; pest or weed control at 500 g/ha [14]: 70%; pest or weed control at 125 g/ha [15]: 0%; pest or weed control at 500 g/ha [15]: 10%; plant injury at 250 g/ha (rice (Oryza sativa)): 0%; pest or weed control at 250 g/ha [16]: 0%; pest or weed control at 250 g/ha [17]: 95%; pest or weed control at 250 g/ha [18]: 75%
CN1CC[C@H](c2ccc(F)cc2)[C@@H](C(=O)Nc2cccc(F)c2F)C1=O [Compound 52, (3S,4S)—N-(2,3-difluorophenyl)-4-(4-fluorophenyl)-1-methyl-2-oxo-3-piperidinecarboxamide]	90%	90%	0%	20%	20%	30%	20%	30%	90%	90%	30%	80%	70%	90%	0%	20%	0%	0%	0%	20%	pest or weed control at 125 g/ha [11]: 80%; pest or weed control at 500 g/ha [11]: 80%; pest or weed control at 125 g/ha [12]: 0%; pest or weed control at 500 g/ha [12]: 0%; plant injury at 125 g/ha [13]: 0%; plant injury at 500 g/ha [13]: 20%; Corn plant response rating (crop injury, 0 = no effect, 100 = complete kill) at 125 g/ha (corn (Zea mays)): 0%; Corn plant response rating (crop injury, 0 = no effect, 100 = complete kill) at 500 g/ha (corn (Zea mays)): 10%; pest or weed control at 125 g/ha [14]: 0%; pest or weed control at 500 g/ha [14]: 0%; pest or weed control at 125 g/ha [15]: 0%; pest or weed control at 500 g/ha [15]: 50%; plant injury at 250 g/ha (rice (Oryza sativa)): 0%; pest or weed control at 250 g/ha [16]: 0%; pest or weed control at 250 g/ha [17]: 100%; pest or weed control at 250 g/ha [18]: 30%
